In patent publication US20180110824A1, “Macrocyclic Modulators of the Ghrelin Receptor” (Ocera Therapeutics, Inc., priority 2016, published 2018):

Key:
[1] = tested on: gastric emptying in fasted rats; assay: Gastric emptying in fasted rats (phenol red methylcellulose meal); assay type: in vivo, rat; settings: i.v.
Method: To examine the effects of compounds of the invention in a model for gastroparesis, compounds were evaluated for possible effects on gastric emptying in fasted rats.
GHRP-6 and test samples were dissolved in vehicle of 9% HPBCD/0.9% NaCl. Immediately following oral administration of methylcellulose (2%) containing phenol red (0.05%) (2 mL/rat), test substances or vehicle (9% HPBCD/0.9% NaCl) were each administered intravenously (i.v.) at a dosing volume of 5 mL/kg.
Male Wistar rats were provided by LASCO (A Charles River Licensee Corporation, Taiwan). Space allocation for 6 animals was 45×23×15 cm. Animals were housed in APEC® cages and maintained in a controlled temperature (22° C.-24° C.) and humidity (60% -80%) environment with 12 h light, 12 h dark cycles for at least one week in the laboratory prior to being used. Free access to standard lab chow for rats (Lab Diet, Rodent Diet, PMI Nutrition International, USA) and tap water was granted. All aspects of this work including housing, experimentation and disposal of animals were performed in general accordance with the Guide for the Care and Use of Laboratory Animals (National Academy Press, Washington, D.C., 1996).
Test substances were each administered intravenously to a group of 5 O/N-fasted Wistar derived male rats weighing 200±20 g immediately after methylcellulose (2%) containing phenol red (0.05%) was administered orally at 2 mL/animal. The animals were then sacrificed 15 minutes later. The stomach was immediately removed, homogenized in 0.1 N NaOH (5 mL) and centrifuged. Following protein precipitation by 20% trichloroacetic acid (0.5 mL)and re-alkalization of the supernatant with 0.1 N NaOH, total phenol red remaining in the stomach was determined by a colorimetric method at 560 nm. A 30 percent or more (≥30%) increase in gastric emptying, detected as the decrease in phenol red concentration in the stomach relative to the vehicle control group, is considered significant.
• 1. Overnight-fasted rats (male Wistar, ˜200 g, N=5/group) were given a meal of methylcellulose (2%) by intragastric gavage. The meal was labeled with phenol red (0.05%). • 2. […] Animals were sacrificed 15 minutes later; the stomach was immediately removed and homogenized in 0.1 N NaOH and centrifuged. • 4. Total phenol red remaining in the stomach was quantified by a colorimetric method at 560 nm. • 5. A >30% increase in gastric emptying, detected based on the phenol red concentration in comparison to the control group, is considered significant.

hGHS-R1a = biological target: T1, hGHS-R1a (Homo sapiens, UniProt Q92847); assay: hGHS-R1a receptor agonism and desensitization by FLIPR in HEK293 cells; assay type: cell-based
T1 construct: expressed in transfected cells; host or cells: HEK293
T1 sequence (Q92847 whole entry): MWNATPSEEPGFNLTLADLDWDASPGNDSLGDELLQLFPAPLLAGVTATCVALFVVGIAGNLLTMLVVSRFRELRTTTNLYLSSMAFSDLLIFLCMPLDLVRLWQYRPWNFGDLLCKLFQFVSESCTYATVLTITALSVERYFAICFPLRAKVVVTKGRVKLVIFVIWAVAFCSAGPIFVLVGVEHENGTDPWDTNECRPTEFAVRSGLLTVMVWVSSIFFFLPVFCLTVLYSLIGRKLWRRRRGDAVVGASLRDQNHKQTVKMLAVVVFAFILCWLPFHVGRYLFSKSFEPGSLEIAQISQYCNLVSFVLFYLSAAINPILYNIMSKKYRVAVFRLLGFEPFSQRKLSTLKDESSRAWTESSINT
Method: • 1. Studies by FLIPR (Fluorometric Imaging Plate Reader, Molecular Devices). • 2. Assay performed on HEK293 cells expressing hGHS-R1a. • 3. […] A DC50 value is calculated.

CC1C(=O)NC(Cc2ccc(F)cc2)C(=O)NCCCc2ccccc2O[C@H](C)CNC(C2CC2)C(=O)N1C (stereo partly shown) [compound 298]
gastric emptying of a meal in naïve rat ([1]; FIGS. 14A and 14B): caused significant gastric emptying in a dose-dependent manner | potency superior to metoclopramide in gastric emptying ([1]; naïve rats, FIG. 14B): ~100 fold | desensitization potency lower than other ghrelin agonists (ghrelin peptide, capromorelin) (hGHS-R1a; FIG. 13C): ~10 fold | DC50 value less potent than the EC50 value (hGHS-R1a; FLIPR, HEK293): > 6 fold | agonist type (hGHS-R1a; FLIPR, HEK293): full agonist | EC50 (hGHS-R1a; FLIPR, HEK293 cells expressing hGHS-R1a, FIG. 13A): 5 nM | DC50 (hGHS-R1a; read-out: DC50 (pre-treatment concentration that desensitizes the ghrelin EC100 response by 50%), 3 minutes pre-treatment, FLIPR, HEK293, FIG. 13B): 32 nM
